The values that follow come from patent US8399506B2, “Combinations of 4 bromo-2-(4-chlorophenyl)-5-(trifluoromethyl)-1H-pyrrole-3-carbonitrile and oxidizing agents” (Janssen Pharmaceutica, NV, priority 2006, dated 2013).

Like-named read-outs stand apart in the source and are kept apart here.

Data set [1] concerns Anabaena cylindrica CCAP 1403/2A. As to the kind of experiment: Experiment 1 poison plate assay, algae species (2). The format is cell-based. To be noted: for MIC-values in ppm: 24-well plates, BG 11 medium, after 3 weeks of exposure, total active ingredient, ratio (I) to (II) in label. How it is done:
(§1) Synergism between component (I) and one of the components (II) was determined by a commonly used and accepted method described by Kull F. C. et al. in Applied Microbiology, 9, 538-541 (1961) using the Synergy Index, which is calculated as follows for two compounds A and B:
(§2) [formula] wherein: • QA is the concentration of compound A in ppm, acting alone, which produced an end point (e.g. MIC), • Qa is the concentration of compound A in ppm, in the mixture, which produced an end point (e.g. MIC), • QB is the concentration of compound B in ppm, acting alone, which produced an end point (e.g. MIC), • Qb is the concentration of compound B in ppm, in the mixture, which produced an end point (e.g. MIC).
(§3) MIC is the minimum inhibitory concentration, i.e. the lowest concentration of each test compound or mixture of test compounds sufficient to inhibit visible growth.
(§4) When the Synergy Index is greater than 1.0, antagonism is indicated. When the SI is equal to 1.0, additivity is indicated.

Data set [2] has as its system Chlamydomonas sphagnophila CCAP 11/36E. As to the kind of experiment: Experiment 1 poison plate assay, algae species (3). The format is cell-based. The note with it: 24-well plates, BG 11 medium, after 3 weeks of exposure, total active ingredient, ratio (I) to (II) in label. How it is done: as §1, §2, §3, §4
Data set [3] concerns Artemia salina (EG Artemia Cysts, Great Salt Lake strain). As to the kind of experiment: Experiment 1 poison plate assay, Artemia salina larvae. The format is in vivo. The note with it: Artemia salina larvae (24 hours old), artificial seawater; after 24 hours of exposure; total active ingredient; ratio (I) to (II) in label. The protocol: as §1, §2, §3, §4
The test system of data set [4] is Chlorella vulgaris CCAP 211/12. Kind of data set: Experiment 2 poison plate assay, algae species (1). The format is cell-based. To be noted: 24-well plates, BG 11 medium, after 3 weeks of exposure, total active ingredient, ratio (I) to (II) in label. The protocol:
as §1, §2, §3, §4
(§5) Synergism between component (I) and one of the components (II) was determined using the Synergy Index as outlined above in Experiment 1.

Data set [5] deals with Anabaena cylindrica CCAP 1403/2A. Kind of data set: Experiment 2 poison plate assay, algae species (2). The format is cell-based. To be noted: 24-well plates, BG 11 medium, after 3 weeks of exposure, total active ingredient, ratio (I) to (II) in label. The protocol: as §1, §2, §3, §4, §5
Data set [6] relates to Tribonema sp. CCAP 880/2. As to the kind of experiment: Experiment 2 poison plate assay, algae species (4). The format is cell-based. How it is done: as §1, §2, §3, §4, §5
The conditions of data set [7]: buffer.

Turning to `N#Cc1c(-c2ccc(Cl)cc2)[nH]c(C(F)(F)F)c1Br` [(I), 4-bromo-2-(4-chlorophenyl)-5-(trifluoromethyl)-1H-pyrrole-3-carbonitrile], the MIC is 107 µg/mL in data set [1] (CCAP1403/2A, 504 h, read-out: MIC-values in ppm) and 107 µg/mL in data set [6] (504 h, read-out: MIC-values in ppm). Further, the MIC-values in ppm in data set [2] is listed as 107.0 ppm; in data set [3] it was 0.13 ppm; in data set [4], 107.0 ppm; in data set [5] (listed as (I) + (II-e) 100 + 0) it was 19 ppm; in data set [5] (listed as (I) + (II-f) 100 + 0), 25.3 ppm; in data set [5] (listed as (I) + (II-g) 100 + 0), 6.00 ppm. Further, the half-life result in data set [7] is reported as “a couple of days”; in data set [7] (pH 8.3), “a few hours”.

potassium superoxide [(II-e)]: the MIC-values in ppm in data set [5] stood at 45.0 ppm.

As for potassium (VI) ferrate [(II-h)], the MIC-values in ppm in data set [6] (Tribonema sp., 24-well plates, BG 11 medium, after 3 weeks of exposure, total active ingredient, ratio (I) to (II) in label) stood at 80.0 ppm.

For potassium nitrosodisulfonate [(II-g)], the MIC-values in ppm in data set [5] worked out at 80.0 ppm.

As to `[O][Cl+][O-]` [(II-c), chlorine dioxide], in data set [4], the MIC-values in ppm was 9.49 ppm.

For the compound `OO` [(II-a), hydrogen peroxide], the results for the MIC-values in ppm in data set [1] and in data set [2] were 25.3 ppm and 45.0 ppm, respectively.

Turning to `[K+].[K+].[O-][O-]` [(II-f), potassium peroxide], in data set [5], the MIC-values in ppm is given as 10.7 ppm.

On to `O=S(=O)([O-])OOS(=O)(=O)[O-].[K+].[K+]` [(II-d), potassium peroxydisulfate], for which, in data set [4], the MIC-values in ppm was 60.0 ppm.

In the case of `[Na+].[O-]Cl` [(II-b), sodium hypochlorite], the MIC-values in ppm in data set [1] is 33.8 ppm; in data set [2], 107.0 ppm; in data set [3], 200.00 ppm.

What is called MIC is the lowest concentration found to suppress growth.
